Assay results: US7018989B2, “Chemical compounds” (University College Cardiff Consultants, LTD, priority 1995, dated 2006)
Read-outs that look alike come from different tables or passages of the source.

Columns and labels:
HIV-2 [1] = assay: Inhibition of HIV-2 in CEM cells (giant cell formation); assay type: cell-based
Procedure, shortened: (§1)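 Infection used 100 CCID50 per mL on 5×10^5 cells/mL, followed by exposure to serial compound dilutions. Read-out: microscopic giant cell scoring after 4 days (CEM); trypan blue viable cell count after 5 days (MT-4).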

CEM cells = assay: Toxicity to CEM cells; assay type: cell-based, human; conditions: Table 6; mean of two or more repeat experiments
HIV1 d4T-Sensitive = assay: HIV1 in HeLa cells, d4T-sensitive strain; assay type: cell-based, HIV-1; conditions: Table 4
HIV-2 [2] = assay: Inhibition of HIV-2 in CEM/TK- cells; assay type: cell-based
Procedure, shortened: as §1

HIV1 d4T-Resistant = assay: HIV1 in HeLa cells, d4T-resistant strain; assay type: cell-based, HIV-1; conditions: read-out: EC50 HeLa HIV1 d4T-Resistant
MT-4 cells = assay: Toxicity to MT-4 cells; assay type: cell-based, human; conditions: Table 6; mean of two or more repeat experiments; read-out: CC50 MT4: CC50 for toxicity to MT-4 cells
Procedure: (§2) Cells were infected with HIV-1 as previously described [Balzarini et al. AIDS (1991), 5, 21–28]. Briefly, 5×10^5 cells per milliliter were infected with HIV-1 or HIV-2 at 100 CCID50 (50% cell culture infective dose) per milliliter of cell suspension. Then 100 μL of the infected cell suspension was transferred to microtiter plate wells and mixed with 100 μL of the appropriate dilutions of the test compounds. After 4 days giant cell formation was recorded microscopically in the HIV-infected cell cultures [CEM], and after 5 days the number of viable cells was determined by trypan blue staining of the HIV-infected cell cultures [MT4].
(§3) The data columns are, in order: • HIV1 MT4: EC50 in μM for inhibition of HIV-1 in MT4 cells. • HIV2 MT4: EC50 in μM for inhibition of HIV-2 in MT4 cells. • CC50 MT4: CC50 in μM for toxicity to MT-4 cells. • HIV1 CEM: EC50 in μM for inhibition of HIV-1 in CEM cells. • HIV2 CEM: EC50 in μM for inhibition of HIV-2 in CEM cells. • HIV2 CEM-TK-: EC50 in μM for inhibition of HIV-2 in CEM/TK^− cells. • CC50 CEM: CC50 in μM for toxicity to CEM cells. • EC50 MSV: EC50 in μM for inhibition of MSV • MCC MSV: Minimum cytotoxic concentration in MSV assay

HIV-1 [3] = assay: microbe, parasite or virus in culture
Procedure, shortened: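 Cells at 5×10^5 per mL were infected with virus at 100 CCID50 per mL and mixed with test compound dilutions. In CEM cultures, giant cell formation was scored microscopically at day 4; in MT-4 cultures, viable cells were counted by trypan blue staining at day 5.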

III-B strain of HIV-1 = assay: microbe, parasite or virus in culture; assay type: cell-based
Procedure: (§4) C8166 cells. Cells were grown in RPMI 1640 with 10% calf serum. 4×10^4 cells per microtiter plate well were mixed with 5-fold dilutions of compound prior to addition of 10 CCID50 units of III-B strain of HIV-1 and incubated for 5–7 days (Betbeder et al. Antiviral Chem. Chemother. 1, 241–247, 1990). Formation of syncytia was examined from 2 days post-infection. Culture fluid was collected at 5–7 days and gp120 antigen production measured by ELISA (Mahmood and Hay, J. Immunol. Meth., 151, 9–13, 1992). […] Cell viability of infected and uninfected cells were assessed by the MTT-Formazen method (Pauwels et al. J. Virol. Meth. 20, 309–321, 1988).
(§5) Each assay was carried out in duplicate, on at least two separate occasions, and data quoted are the average of each separate assay.

HIV-1 [4] = assay: Inhibition of HIV-1 in MT4 cells; assay type: cell-based; conditions: Table 6; mean of two or more repeat experiments; read-out: HIV1 MT4: EC50 for inhibition of HIV-1 in MT4 cells
Procedure: as §2, §3

C8166 cells = assay: Toxicity in C8166 cells (MTT-Formazen); assay type: cell-based; conditions: Table 3
Procedure: as §4, §5

HIV-2 [5] = assay: Inhibition of HIV-2 in MT4 cells; assay type: cell-based; conditions: Table 6; mean of two or more repeat experiments; read-out: HIV2 MT4: EC50 for inhibition of HIV-2 in MT4 cells
Procedure: as §2, §3

[6] = tested on: Moloney Sarcoma Virus [MSV]; assay: MSV-induced tumour formation and survival in NMRI mice; assay type: in vivo; conditions: MSV infected mice; 50 [low] or 200 [high] mg/kg/day i.p. for 4 days
Procedure: Drug doses are 50[low ] or 200 [high] mg/kg/day given i.p. for 4 days starting 1 hour before MSV inoculation.
In Vivo Testing Inhibitory Effects of Test Compounds on the Initiation of MSV-Induced Tumour Formation in NRMI Mice and on the Survival of MSV Innoculated NMRI Mice.
Mice infected with Moloney Sarcoma Virus [MSV] were treated daily with either placebo, or d4T [at one of two doses] or with compound 324 at one of the same [equi-molar] doses.
Two- to three-day old NMRI mice (weighing—2 gram) were innoculated subcutaneously (s.c.) in the left hind leg with 50 μl MSV (100 foci forming units, as measured by in vitro determination of the virus-induced transformation of murine C3H embryo fibroblast cells). At 4 to 5 days post-infection, tumours develop and rapidly increase in volume upon further aging of the mice. Within 10 to 12 days post-infection, mice (then weighing—5 to 6 gram) die from the viral infection. Drug treatment started 1 hour prior to infection of the virus, and further compound administration was given daily i.p. for an additional 3 days. The mean day of tumour initiation (±standard deviation) and the mean day of survival of the mice (±standard deviation) was calculated and statistical significance of the average delay of tumour formation and the mean day of survival in the treated groups versus the untreated (control) group was assessed by two-tailed student's t-test.

HIV RT = HIV RT (Human immunodeficiency virus type 1 group M subtype B, UniProt P03366); assay: Inhibition of HIV reverse transcriptase; assay type: biochemical; conditions: Table 4
[7] = tested on: HIV-1 (GB8 or IIIB strains); assay: Anti-HIV-1 activity in JM cells; assay type: cell-based; conditions: Human immunodeficiency virus 1, IIIB; HIV1 in JM; Table 2
Procedure: as §4
JM cells JM cells, which are relatively resistant to the antiviral effects of AZT and a number of its derivatives, were infected with HIV-1 strains and the antiviral and toxic effects of compounds assessed as for C8166 cells. Both GB8 or IIIB strains of HIV1 were used, with no delectable differences in the end-points noted.
as §5

[8] = Toxicity in C8166 cells (MTT-Formazen); assay type: cell-based; conditions: human, Table 3
Procedure: as §4, §5

[9] = Table 6, mean of two or more repeat experiments, read-out: HIV2 CEM: EC50 for inhibition of HIV-2 in CEM cells
[10] = Table 4, read-out: EC50 CEM TK− HIV2
[11] = Table 6, mean of two or more repeat experiments, read-out: HIV2 CEM-TK-: EC50 for inhibition of HIV-2 in CEM/TK^− cells
[12] = read-out: EC50 CEM HIV1, Table 4
[13] = read-out: HIV1 CEM: EC50 for inhibition of HIV-1 in CEM cells, Table 6, mean of two or more repeat experiments
[14] = HIV1 in C8166 cells, Table 3, read-out: Activity EC50
[15] = Table 4, read-out: EC50 8166 HIV1
[16] = Human immunodeficiency virus 2, CEM-TK(-), read-out: EC50 CEM TK^−
[17] = Human immunodeficiency virus 1, HeLa
[18] = Human immunodeficiency virus 1, CCRF-CEM, read-out: EC50 CEM HIV1
[19] = Human immunodeficiency virus 1, C8166, Table 4, read-out: EC50 8166 HIV1

SMILES | EC50 (HIV-2 [1]; [9]) [µM] | CC50 (CEM cells) [µM] | EC50 (HIV-2 [2]; [11]) [µM] | CC50 (MT-4 cells) [µM] | EC50 (HIV-1 [3]; [13]) [µM] | Selectivity CC50/EC50 × 10^3 (III-B strain of HIV-1) | EC50 (III-B strain of HIV-1; [14]) [µM] | EC50 (HIV-1 [4]) [µM] | CC50 (C8166 cells) [µM] | EC50 (HIV-2 [5]) [µM] | other results
COC(=O)C(C)NP(=O)(OC[C@@H]1C=C[C@H](n2cc(C)c(=O)[nH]c2=O)O1)Oc1cc(Cl)cc(Cl)c1 (some centres unmarked) [Compound 546, 2′,3′-dideoxy-2′,3′-didehydrothymidine 5′-(3,5-dichlorophenylmethoxyalaninyl) phosphoramidate] | 0.15 | 26.9 | 0.12 | 10.5 | 0.12 | 100 × 10^3 | 0.001 | 0.037 | 100 | 0.12 | EC50 (HIV1 d4T-Sensitive): 0.03 µM; EC50 (HIV-2 [2]; [10]): 0.06 µM; EC50 (HIV1 d4T-Resistant; Table 4): 0.04 µM; EC50 (HIV-1 [3]; [12]): 0.06 µM; EC50 (III-B strain of HIV-1; [15]): 0.001 µM
Cc1cn([C@H]2C=C[C@@H](CO)O2)c(=O)[nH]c1=O [d4T, 2′,3′-dideoxy-2′,3′-didehydrothymidine, reference compound] | – | – | – | – | – | 0.6 × 10^3 | – | – | – | – | EC50 (HIV-2 [1]; [16]): 1.2 µM; delay in death [6]: failed to give any detectable delay; delay in tumour appearance [6]: failed to give any detectable delay; EC50 HIV RT (HIV RT): Inactive; EC50 (HIV1 d4T-Sensitive; [17]): 0.86 µM; EC50 [7]: 0.8 µM; EC50 (HIV-2 [2]; [16]): > 100 µM; EC50 (HIV-2 [2]; Human immunodeficiency virus 2, CEM-TK(-), read-out: EC50 CEM TK− HIV2): > 100 µM; EC50 (HIV1 d4T-Resistant; [17]): 3.38 µM; EC50 (HIV-1 [3]; [18]): 0.5 µM; EC50 (III-B strain of HIV-1; [19]): 0.08 µM; EC50 (III-B strain of HIV-1; Human immunodeficiency virus 1, HIV1 in C8166, Table 2, read-out: EC50 C8166): 0.08 µM; EC50 (III-B strain of HIV-1; Human immunodeficiency virus 1, HIV1 in C8166 cells, Table 3, read-out: Activity EC50): 0.08 µM; CC50 [8]: 50 µM
COC(=O)C(C)NP(=O)(OCC1C=CC(n2cc(C)c(=O)[nH]c2=O)O1)Oc1cccc(C(F)(F)F)c1 (centres unmarked) [Compound 526, 2′,3′-dideoxy-2′,3′-didehydrothymidine 5′-(m-trifluromethylphenylmethoxyalaninyl) phosphoramidate] | 0.15 | 30 | 0.12 | 10 | 0.15 | 250 × 10^3 | 0.0008 | 0.05 | 200 | 0.11 | EC50 (HIV1 d4T-Sensitive): 0.04 µM; EC50 (HIV-2 [2]; [10]): 0.06 µM; EC50 (HIV1 d4T-Resistant; Table 4): 0.05 µM; EC50 (HIV-1 [3]; [12]): 0.08 µM; EC50 (III-B strain of HIV-1; [15]): 0.0008 µM
Cc1cn([C@H]2C[C@H](N=[N+]=[N-])[C@@H](CO)O2)c(=O)[nH]c1=O [AZT, 3′-azido-3′-deoxythymidine, reference compound] | – | – | – | – | – | – | – | – | – | – | EC50 HIV RT (HIV RT): Inactive; EC50 (HIV-2 [2]; Human immunodeficiency virus 2, CEM-TK(-), Table 4, read-out: EC50 CEM TK− HIV2): > 100 µM; EC50 (HIV-1 [3]; [18]): 0.003 µM; EC50 (III-B strain of HIV-1; [19]): 0.008 µM
COC(=O)C(C)NP(=O)(OC[C@@H]1C=C[C@H](n2cc(C)c(=O)[nH]c2=O)O1)Oc1c(F)c(F)c(F)c(F)c1F (some centres unmarked) [Compound 779, 2′,3′-dideoxy-2′,3′-didehydrothymidine-5′-(2,3,4,5,6-pentafluorophenyl-N-methylalaninyl) phosphoramidate] | 3.7 | 115 | 8.5 | 82 | 2.5 | 1.25 × 10^3 | 0.064 | 1.72 | 80 | 4.01 | –
COC(=O)C(Cc1ccccc1)NP(=O)(OC[C@@H]1C=C[C@H](n2cc(C)c(=O)[nH]c2=O)O1)Oc1ccccc1 (some centres unmarked) [Compound 863, 2′,3′-dideoxy-2′,3′-didehydrothymidine-5′-(phenyl N-methoxy-phenylalaninyl) phosphoramidate] | 1.35 | 216 | 0.33 | 34 | 0.8 | 31.2 × 10^3 | 0.016 | 0.2 | 500 | 0.4 | –
COC(=O)C(CC(C)C)NP(=O)(OCC1C=CC(n2cc(C)c(=O)[nH]c2=O)O1)Oc1ccccc1 (centres unmarked) [Compound 864, 2′,3′-dideoxy-2′,3′-didehydrothymidine-5′-(phenyl N-methoxy-leucinyl) phosphoramidate] | 2.23 | ≥ 250 | 0.4 | 62 | 1.1 | >62.5 × 10^3 | 0.016 | 0.2 | > 1000 | 0.5 | –
CCc1ccc(OP(=O)(N[C@@H](C)C(=O)OC)OCC2C=CC(n3cc(C)c(=O)[nH]c3=O)O2)cc1 (some centres unmarked) [Compound 323, 2′,3′-dideoxy-2′,3′-didehydrothymidine 5′-(p-ethylphenylmethoxyalaninyl) Phosphoramidate] | 0.16 | 60 | 0.06 | > 100 | 0.07 | 15.6 × 10^3 | 0.0032 | 0.057 | 50 | 0.063 | –
